In one series the test system is HeLa. Description: Cytotoxicity against human HeLa cells at 200 ug/ml after 24 hrs by MTT based colorimetric assay. In kind it is cell-based.
Series [1] is described as follows: Toxicity against Lactobacillus acidophilus at 200 ug/ml after 24 hrs by microplate reader.
The test system of another series is Spermatozoa. Description: Spermicidal activity against human spermatozoa assessed as immobilization measured for 60 seconds by visual scoring. Format: functional. Set-up: concentration or dose not given beside the values.
In series [2] the test system is Candida albicans. Description: Antifungal activity against Candida albicans NCIM-3557 after 48 hrs by broth microdilution assay. Conditions: NCIM-3557, 48 h. In kind it is functional. Background: Broth dilution looks for growth in wells or tubes with falling amounts of substance.
For series [3], the system named is Candida albicans. Description: Antifungal activity against Candida albicans MTCC-183 after 48 hrs by broth microdilution assay. Format: functional. The settings on record: MTCC-183, 48 h.
The subject of series [4] is Candida albicans. Description: Antifungal activity against Candida albicans isolate CDRI after 48 hrs by broth microdilution assay. Format: functional.
Another series has as its system Trichomonas vaginalis. Nature of the series: Antitrichomonas activity against Trichomonas vaginalis after 48 hrs by trypan blue exclusion assay. In kind it is functional.
Series [5] relates to Candida albicans. Nature of the series: Antifungal activity against Candida albicans after 48 hrs by broth microdilution assay. Format: functional.
A further series has as its system Candida parapsilosis. Description: Antifungal activity against Candida parapsilosis after 48 hrs by broth microdilution assay. In kind it is functional. The settings on record: Lodderomyces parapsilosis.

The source of these data is ChEMBL document CHEMBL1641578, “Design and synthesis of 3-(azol-1-yl)phenylpropanes as microbicidal spermicides for prophylactic contraception” (Bioorg Med Chem Lett, 2011).

Molecules are shown by their SMILES. Converted amounts (≈) assume the structure as drawn.

Consider `O=C(CCn1ccnc1)c1ccccc1`, for which the results for the Activity result (in the series on HeLa; in series [1]; in the series on Spermatozoa) were “Non-toxic”, “Non-toxic” and 100%, respectively. Also, the MIC (commonly the smallest concentration in the dilution series that meets the test's criterion for growth inhibition) against Candida albicans [2] is above 50 mg/L; against Candida albicans [3] it was above 50 mg/L; against Candida albicans [4], 50 mg/L (≈ 250 µM); against Trichomonas vaginalis, above 200 mg/L; against Candida albicans [5], above 50 mg/L; with Candida parapsilosis, above 50 mg/L.
As for `OC(CCn1cncn1)c1ccccc1` (centres undefined), the Activity entry is “Non-toxic” in the series on HeLa, “Non-toxic” in series [1] and 70% in the series with Spermatozoa. Further, the MIC was above 50 mg/L against Candida albicans [2]; above 50 mg/L with Candida albicans [3]; above 50 mg/L in the series with Candida albicans [4]; above 200 mg/L in the series on Trichomonas vaginalis; above 50 mg/L in the series with Candida albicans [5]; above 50 mg/L in the series on Candida parapsilosis.
Regarding `OC(CCn1nnc2ccccc21)c1ccccc1` (centres undefined), the figures for the Activity entry (with HeLa; in series [1]; in the series on Spermatozoa) were “Non-toxic”, “Non-toxic” and 100%, respectively. Also, the minimal inhibitory concentration (MIC) is above 50 mg/L against Candida albicans [2]; above 50 mg/L with Candida albicans [3]; 50 mg/L (≈ 197 µM) against Candida albicans [4]; above 200 mg/L against Trichomonas vaginalis; above 50 mg/L with Candida albicans [5]; above 50 mg/L with Candida parapsilosis.
As for `Cc1nccn1CCC(O)c1ccccc1` (centres undefined), the Activity result with HeLa is recorded as “Non-toxic”; in [1], “Non-toxic”; with Spermatozoa, 100%. Also, the MIC against Candida albicans [2] is above 50 mg/L; against Candida albicans [3], above 50 mg/L; in the series with Candida albicans [4] it was above 50 mg/L; in the series with Trichomonas vaginalis it was above 200 mg/L; with Candida albicans [5], above 50 mg/L; in the series on Candida parapsilosis, above 50 mg/L.
With `O=[N+]([O-])c1cn(CCC(O)c2ccccc2)cn1` (centres undefined), the Activity result is given as “Non-toxic” in the series on HeLa, “Non-toxic” in [1] and 95% with Spermatozoa. Moreover, the minimal inhibitory concentration (MIC) was above 50 mg/L in the series on Candida albicans [2]; above 50 mg/L against Candida albicans [3]; 50 mg/L (≈ 202 µM) against Candida albicans [4]; 25 mg/L (≈ 101 µM) in the series on Trichomonas vaginalis; above 50 mg/L with Candida albicans [5]; above 50 mg/L against Candida parapsilosis.
In the case of `Cc1ncc([N+](=O)[O-])n1CCC(O)c1ccccc1` (centres undefined), the Activity entry is “Non-toxic” in the series on HeLa, “Non-toxic” in series [1] and 70% in the series on Spermatozoa. Moreover, the MIC with Candida albicans [2] is above 50 mg/L; against Candida albicans [3], above 50 mg/L; against Candida albicans [4], above 50 mg/L; in the series on Trichomonas vaginalis it was 50 mg/L (≈ 191 µM); in the series with Candida albicans [5], above 50 mg/L; against Candida parapsilosis, above 50 mg/L.
As for `FC(F)(F)c1ccc(OC(CCn2cnc3ccccc32)c2ccccc2)cc1` (centres undefined), the Activity result is recorded as “Toxic” in the series on HeLa, “Toxic” in [1] and 50% in the series with Spermatozoa. The MIC with Candida albicans [2] is above 50 mg/L; in the series with Candida albicans [3], above 50 mg/L; in the series with Candida albicans [4], above 50 mg/L; against Trichomonas vaginalis, 25 mg/L (≈ 63.1 µM); in the series on Candida albicans [5], above 50 mg/L; against Candida parapsilosis, above 50 mg/L.
As to `FC(F)(F)c1ccc(OC(CCn2cncn2)c2ccccc2)cc1` (centres undefined), the results for the Activity result (in the series with HeLa; in series [1]; with Spermatozoa) were “Toxic”, “Toxic” and 100%, respectively. In addition, the MIC is above 50 mg/L in the series with Candida albicans [2]; 50 mg/L (≈ 144 µM) with Candida albicans [3]; above 50 mg/L against Candida albicans [4]; 50 mg/L (≈ 144 µM) against Trichomonas vaginalis; 50 mg/L (≈ 144 µM) in the series on Candida albicans [5]; above 50 mg/L in the series on Candida parapsilosis.
Take `FC(F)(F)c1ccc(OC(CCn2nnc3ccccc32)c2ccccc2)cc1` (centres undefined): the values for the Activity entry (in the series on HeLa; in series [1]; in the series with Spermatozoa) were “Non-toxic”, “Non-toxic” and 70%, respectively. For the same compound, the MIC was above 50 mg/L in the series with Candida albicans [2]; above 50 mg/L against Candida albicans [3]; above 50 mg/L against Candida albicans [4]; above 200 mg/L in the series on Trichomonas vaginalis; above 50 mg/L in the series with Candida albicans [5]; above 50 mg/L against Candida parapsilosis.
Take `Cc1nccn1CCC(Oc1ccc(C(F)(F)F)cc1)c1ccccc1` (centres undefined): the Activity result in the series on HeLa was “Toxic”; in series [1], “Toxic”; in the series with Spermatozoa, 100%. In addition, the MIC was 50 mg/L (≈ 139 µM) against Candida albicans [2]; 25 mg/L (≈ 69.4 µM) against Candida albicans [3]; 50 mg/L (≈ 139 µM) in the series with Candida albicans [4]; 25 mg/L (≈ 69.4 µM) in the series with Trichomonas vaginalis; 25 mg/L (≈ 69.4 µM) against Candida albicans [5]; 50 mg/L (≈ 139 µM) in the series with Candida parapsilosis.
On to `O=[N+]([O-])c1cn(CCC(Oc2ccc(C(F)(F)F)cc2)c2ccccc2)cn1` (centres undefined), for which the figures for the Activity result (in the series with HeLa; in [1]; in the series with Spermatozoa) were “Non-toxic”, “Non-toxic” and 40%, respectively. For the same compound, the minimal inhibitory concentration (MIC) against Candida albicans [2] is above 50 mg/L; in the series on Candida albicans [3], above 50 mg/L; against Candida albicans [4], above 50 mg/L; against Trichomonas vaginalis, 12.5 mg/L (≈ 31.9 µM); with Candida albicans [5] it was above 50 mg/L; against Candida parapsilosis, above 50 mg/L.
Regarding `Cc1ncc([N+](=O)[O-])n1CCC(Oc1ccc(C(F)(F)F)cc1)c1ccccc1` (centres undefined), the Activity result in the series with HeLa was “Non-toxic”; in series [1], “Non-toxic”; in the series with Spermatozoa, 70%. The MIC was above 50 mg/L with Candida albicans [2]; above 50 mg/L against Candida albicans [3]; above 50 mg/L in the series on Candida albicans [4]; 25 mg/L (≈ 61.7 µM) against Trichomonas vaginalis; above 50 mg/L against Candida albicans [5]; above 50 mg/L in the series with Candida parapsilosis.
With `C(=C\c1ccccc1)/Cn1ccnc1`, the figures for the Activity result (with HeLa; in [1]; in the series with Spermatozoa) were “Non-toxic”, “Non-toxic” and 100%, respectively. Besides, the minimum inhibitory concentration (MIC) with Candida albicans [2] was above 50 mg/L; in the series with Candida albicans [3], above 50 mg/L; against Candida albicans [4], 25 mg/L (≈ 136 µM); against Trichomonas vaginalis, above 200 mg/L; in the series with Candida albicans [5] it was above 50 mg/L; in the series with Candida parapsilosis it was 50 mg/L (≈ 271 µM).
On to `O=[N+]([O-])c1cn(C/C=C/c2ccccc2)cn1`, for which the values for the Activity result (with HeLa; in series [1]; with Spermatozoa) were “Non-toxic”, “Non-toxic” and 80%, respectively. For the same compound, the minimum inhibitory concentration (MIC) in the series with Candida albicans [2] is above 50 mg/L; with Candida albicans [3] it was above 50 mg/L; with Candida albicans [4], above 50 mg/L; against Trichomonas vaginalis, 25 mg/L (≈ 109 µM); with Candida albicans [5], above 50 mg/L; against Candida parapsilosis, above 50 mg/L.
Turning to `Cc1ncc([N+](=O)[O-])n1C/C=C/c1ccccc1`, the Activity result is on record as “Non-toxic” in the series with HeLa, “Non-toxic” in series [1] and 90% with Spermatozoa. For the same compound, the MIC is above 50 mg/L in the series on Candida albicans [2]; above 50 mg/L in the series on Candida albicans [3]; above 50 mg/L with Candida albicans [4]; 25 mg/L (≈ 103 µM) against Trichomonas vaginalis; 50 mg/L (≈ 206 µM) against Candida albicans [5]; above 50 mg/L with Candida parapsilosis.
As to `FC(F)(F)c1ccc(OC/C=C/c2ccccc2)cc1`, the Activity result with HeLa is reported as “Non-toxic”; in [1], “Non-toxic”; with Spermatozoa, 90%. Also, the MIC against Candida albicans [2] was above 50 mg/L; against Candida albicans [3], above 50 mg/L; against Candida albicans [4], 50 mg/L (≈ 180 µM); against Trichomonas vaginalis it was above 200 mg/L; with Candida albicans [5], above 50 mg/L; in the series with Candida parapsilosis it was above 50 mg/L.
Take `FC(F)(F)c1ccc(OC(CCn2ccnc2)c2ccccc2)cc1` (centres undefined): the Activity result with HeLa was “Toxic”; in [1], “Toxic”; with Spermatozoa it was 100%. Also, the MIC in the series on Candida albicans [2] turned out to be 50 mg/L (≈ 144 µM); against Candida albicans [3], 50 mg/L (≈ 144 µM); against Candida albicans [4], 50 mg/L (≈ 144 µM); in the series with Trichomonas vaginalis, 12.5 mg/L (≈ 36.1 µM); against Candida albicans [5], 12.5 mg/L (≈ 36.1 µM); in the series on Candida parapsilosis, 50 mg/L (≈ 144 µM).
Consider `OC(Cn1cncn1)(Cn1cncn1)c1ccc(F)cc1F` [FLUCONAZOLE], for which the MIC with Candida albicans [2] was determined as 0.25 mg/L (≈ 0.816 µM); against Candida albicans [3], 0.25 mg/L (≈ 0.816 µM); in the series on Candida albicans [4], 0.25 mg/L (≈ 0.816 µM); against Candida albicans [5], 0.5 mg/L (≈ 1.63 µM); in the series with Candida parapsilosis, 0.5 mg/L (≈ 1.63 µM).
Compound `Cc1ncc([N+](=O)[O-])n1CCO` [METRONIDAZOLE] came in with an MIC in the series with Trichomonas vaginalis of 2 mg/L (≈ 11.7 µM).
